Reference: ChEMBL document CHEMBL5143536, “Dihydroartemisinin improves hypercholesterolemia in ovariectomized mice via enhancing vectorial transport of cholesterol and bile acids from blood to bile” (Bioorg Med Chem, 2022)
Active and inactive are the calls of the source.

Columns and labels:
Assay type in all cases: functional, organism-based
Mus musculus [1] = assay: Hypocholesterolemic activity in OVX-induced C57BL/6 mouse model assessed as decrease in TC concentration in serum at 150 mg/kg, ig for 4 weeks
Mus musculus [2] = assay: Hypocholesterolemic activity in OVX-induced C57BL/6 mouse model assessed as increase in HDL-C concentration in serum at 150 mg/kg, ig for 4 weeks
Mus musculus [3] = assay: Hypocholesterolemic activity in OVX-induced C57BL/6 mouse model assessed as decrease in LDL-C concentration in serum at 150 mg/kg, ig for 4 weeks
Mus musculus [4] = assay: Hypocholesterolemic activity in OVX-induced C57BL/6 mouse model assessed as decrease in number of lipid droplet concentration in liver at 150 mg/kg, ig for 4 weeks by H and E staining based assay
Mus musculus [5] = assay: Hypocholesterolemic activity in OVX-induced C57BL/6 mouse model assessed as decrease in size of lipid droplet concentration in […] at 150 mg/kg, ig for 4 weeks by H and E staining based assay; conditions: Liver
Mus musculus [6] = assay: Hypocholesterolemic activity in OVX-induced C57BL/6 mouse model assessed as increase in Cyp7b1 mRNA expression in liver in liver at 150 mg/kg, ig for 4 weeks by qRT-PCR analysis
Mus musculus [7] = assay: Hypocholesterolemic activity in OVX-induced C57BL/6 mouse model assessed as increase in Abcg8 mRNA expression in liver in liver at 150 mg/kg, ig for 4 weeks by qRT-PCR analysis
Mus musculus [8] = assay: Hypocholesterolemic activity in OVX-induced C57BL/6 mouse model assessed as increase in Abcg5 mRNA expression in liver in liver at 150 mg/kg, ig for 4 weeks by qRT-PCR analysis
Mus musculus [9] = assay: Hypocholesterolemic activity in OVX-induced C57BL/6 mouse model assessed as increase in Abcg8 protein expression in liver in liver at 150 mg/kg, ig for 4 weeks by western blot analysis
Mus musculus [10] = assay: Hypocholesterolemic activity in OVX-induced C57BL/6 mouse model assessed as increase in Abcg5 protein expression in liver in liver at 150 mg/kg, ig for 4 weeks by western blot analysis
Mus musculus [11] = assay: Hypocholesterolemic activity in OVX-induced C57BL/6 mouse model assessed as increase in Slcob2 mRNA expression in liver in liver at 150 mg/kg, ig for 4 weeks by qRT-PCR analysis
Mus musculus [12] = assay: Hypocholesterolemic activity in OVX-induced C57BL/6 mouse model assessed as increase in Abcb1a mRNA expression in liver in liver at 150 mg/kg, ig for 4 weeks by qRT-PCR analysis
Mus musculus [13] = assay: Hypocholesterolemic activity in OVX-induced C57BL/6 mouse model assessed as increase in Abcb4 mRNA expression in liver in liver at 150 mg/kg, ig for 4 weeks by qRT-PCR analysis
Mus musculus [14] = assay: Hypocholesterolemic activity in OVX-induced C57BL/6 mouse model assessed as increase in Slc10a1 mRNA expression in liver in liver at 150 mg/kg, ig for 4 weeks by qRT-PCR analysis
Mus musculus [15] = assay: Hypocholesterolemic activity in OVX-induced C57BL/6 mouse model assessed as decrease in Slc10a2 mRNA expression in Ileum at 150 mg/kg, ig for 4 weeks by qRT-PCR analysis
Mus musculus [16] = assay: Hypocholesterolemic activity in OVX-induced C57BL/6 mouse model assessed as decrease in Fabp6 mRNA expression in Ileum […] at 150 mg/kg, ig for 4 weeks by qRT-PCR analysis
Mus musculus [17] = assay: Hypocholesterolemic activity in OVX-induced C57BL/6 mouse model assessed as increase in Fasn mRNA expression in liver at 150 mg/kg, ig for 4 weeks by qRT-PCR analysis
Mus musculus [18] = assay: Hypocholesterolemic activity in OVX-induced C57BL/6 mouse model assessed as increase in SCD1 protein expression in liver at 150 mg/kg, ig for 4 weeks by western blot analysis
Mus musculus [19] = assay: Hypocholesterolemic activity in OVX-induced C57BL/6 mouse model assessed as increase in Scd1 mRNA expression in liver at 150 mg/kg, ig for 4 weeks by qRT-PCR analysis
Mus musculus [20] = assay: Hypocholesterolemic activity in OVX-induced C57BL/6 mouse model assessed as increase in Fasn protein expression in liver at 150 mg/kg, ig for 4 weeks by western blot analysis
Mus musculus [21] = assay: Hypocholesterolemic activity in OVX-induced C57BL/6 mouse model assessed as increase in CD36 mRNA expression in liver at 150 mg/kg, ig for 4 weeks by qRT-PCR analysis
Mus musculus [22] = assay: Hypocholesterolemic activity in OVX-induced C57BL/6 mouse model assessed as increase in Elovl5 mRNA expression in liver at 150 mg/kg, ig for 4 weeks by qRT-PCR analysis
Mus musculus [23] = assay: Hypocholesterolemic activity in OVX-induced C57BL/6 mouse model assessed as increase in Elovl6 mRNA expression in liver at 150 mg/kg, ig for 4 weeks by qRT-PCR analysis
Mus musculus [24] = assay: Hypocholesterolemic activity in OVX-induced C57BL/6 mouse model assessed as increase in ACACa protein expression in liver at 150 mg/kg, ig for 4 weeks by western blot analysis
Mus musculus [25] = assay: Hypocholesterolemic activity in OVX-induced C57BL/6 mouse model assessed as increase in CD36 protein expression in liver at 150 mg/kg, ig for 4 weeks by western blot analysis

Measured: Activity

C[C@H]1[C@@H](O)O[C@@H]2O[C@@]3(C)CC[C@H]4[C@H](C)CC[C@@H]1[C@@]24OO3
active: Mus musculus [1] | Mus musculus [2] | Mus musculus [3] | Mus musculus [4] | Mus musculus [5] | Mus musculus [6] | Mus musculus [7] | Mus musculus [8] | Mus musculus [9] | Mus musculus [10] | Mus musculus [11] | Mus musculus [12] | Mus musculus [13] | Mus musculus [14] | Mus musculus [15] | Mus musculus [16] | Mus musculus [17] | Mus musculus [18] | Mus musculus [19] | Mus musculus [20] | Mus musculus [21] | Mus musculus [22] | Mus musculus [23] | Mus musculus [24] | Mus musculus [25]
